Test results from patent publication US20090149496A1, “INHIBITORS OF THE TASK-1 AND TASK-3 ION CHANNEL” (SANOFI-AVENTIS DEUTSCHLAND GMBH, priority 2006, published 2009).

Tests used:
[1] = molecular target: T1, TASK1 (mouse) (Mus musculus, UniProt O35111); assay: Activity on the TASK-1 channel in Xenopus oocytes (two-microelectrode voltage clamp), mouse channel; format: cell-based; details: mouse TASK-1 expressed in Xenopus oocytes, voltage jumps to 40 mV, pH 7.4, room temperature; read-out: IC50 (μmol) TASK1 (mouse)
T1 construct: expressed in transfected cells; host or cells: Xenopus laevis oocytes injected with in vitro synthesized RNA
Method: (§1) A) Determination of the Activity on the TASK-1 Channel in Xenopus Oocytes
(§2) Mouse or human TASK-1 channels were expressed in Xenopus oocytes. For this purpose, oocytes were first isolated from Xenopus levis and defolliculated. Subsequently, TASK-1-encoding RNA synthesized in vitro was injected into these oocytes. After two days of TASK-1 protein expression, TASK-1 currents were measured on the oocytes with the two-microelectrode voltage clamp technique. In this measurement, the TASK-1 channels were generally activated with voltage jumps lasting 250 ms to 40 mV. The bath was flushed with a solution of the following composition: NaCl 96 mM, KCl 2 mM, CaCl2 1.8 mM, MgCl2 1 mM, HEPES 5 mM (titrated to pH 7.4 with NaOH). These experiments were performed at room temperature. For data acquisition and analysis, the following were used: Geneclamp amplifier (Axon Instruments, Foster City, USA) and MacLab D/A converter and software (ADinstruments, Castle Hill, Australia). The inventive substances were tested by adding them to the bath solution in different concentrations. The effects of the substances were calculated as the percentage inhibition of the TASK-1 control current which was obtained when no substance was added to the solution. The data was subsequently fitted to the Hill equation in order to determine the half-maximum inhibitory concentrations (IC50 values) for the particular substances.

[2] = molecular target: T2, human TASK-3 channel (Homo sapiens, UniProt Q9NPC2); assay: Activity on the TASK-3 channel by patch-clamp on CHO cells; format: cell-based; details: whole cell, CHO cells expressing human TASK-3, read-out: IC50 (μmol/l) TASK3 (human)
T2 construct: expressed in transfected cells; host or cells: CHO DHFR-minus cells, clone CHO-244-8-1
Method: C) Determination of the Activity on the TASK-3 Channel by Patch-Clamp Investigations
With the aid of the patch-clamp technique, the inhibition of the human TASK-3 current by the example compounds was measured on CHO cells in which the human TASK-3 channel is expressed. To produce the TASK-3 cell line, the human TASK-3 cDNA (Genbank, Accession Number AF248241) was cloned into the eukaryotic expression vector p658, which bears a DHFR (dihydrofolate reductase) resistance gene [reference: Gene 1994 (149), 341-344, 1994]. CHO (Chinese hamster ovary) DHFR-minus cells were transfected with the TASK-3 expression construct using the Fugene reagent (Roche Biochemicals) according to the manufacturer's instructions. […] Resulting cell clones were analyzed for the expression of TASK-3 with the aid of a fluorescence-based activity assay in a FlexStation (Molecular Devices) and with a membrane potention-sensitive dye (Molecular Devices FMP Dye Kit). […] TASK-3-positive cell clones were subsequently analyzed for resulting potassium currents with the patch-clamp technique. […]
To investigate the substances, the cells were introduced into a measurement chamber which is mounted on an inverted microscope. […] The concentration of the half-maximum inhibition of the current (IC50 value) was determined by fitting the curve to the mathematical Hill equation.
In this analysis, the following IC50 values were determined: […]

[3] = tested on: respiration in rabbits; assay: Action on respiration in rabbits (propofol-induced apnea); format: in vivo; details: rabbit, 10 mg/kg i.v., propofol 10 mg/kg/min, n = 13
Method: D) Investigation of the Action on Respiration in Rabbits
An apnea was induced in the rabbit by infusion of the narcotic propofol, 10 mg/kg/min. The vehicle used for the compound of example 1 (R-enantiomer) was DMSO/PEG (0.2 ml/1.8 ml). The time from the start of propofol infusion up to the apnea was recorded.

[4] = tested on: genioglossus muscle; assay: Electromyographic activity of the genioglossus muscle in narcotized rats; format: in vivo, rat
Method: (§3) E) Investigation of the Effect on the Electromyographic Activity of the Genioglossus Muscle and the Respiratory Minute Volume in Rats
(§4) The compound of example 1 (R-enantiomer) and of example 2 was investigated for electromyographic activity of the genioglossus muscle and for respiration-stimulating effect on male urethane-chloralose-narcotized, vagotomized rats with a weight of from 250 to 300 g. For this purpose, the genioglossus EMG activity was measured by means of EMG electrodes. The respiration-stimulating effect was investigated by measuring the respiratory minute volume by means of a tracheal cannula. For the investigations, the rats were administered intravenously successively with 1, 3 and 10 mg/kg of the compound of example 1 (R-enantiomer) and of example 2, with glycofurol (50%) as the vehicle, at 15 minute intervals. CO2 was used as the positive control for the stimulation of the genioglossus activity and of the respiratory minute volume.

[5] = tested on: respiration; assay: Respiratory minute volume in narcotized rats; format: in vivo, rat
Method: as §3, §4

[6] = tested on: rats; assay: Compatibility in rats; format: in vivo, rat; details: oral administration of 1000 mg/kg
Text: F) Investigation of Compatibility in Rats

[7] = molecular target: T3, TASK1 (human) (Homo sapiens, UniProt O14649); assay: Activity on the TASK-1 channel with the FLIPR technique on CHO cells; format: cell-based; design: expressed in transfected cells; host or cells: CHO cells; details: inhibition of human TASK-1 current, 10 μmol/l
Text: B) Determination of the Activity on the TASK-1 Channel with the FLIPR Technique

[8] = molecular target: T3, TASK1 (human); assay: Activity on the TASK-1 channel in Xenopus oocytes (two-microelectrode voltage clamp), human channel; format: cell-based; design: expressed in transfected cells; host or cells: Xenopus laevis oocytes injected with in vitro synthesized RNA; details: human TASK-1 expressed in Xenopus oocytes, voltage jumps to 40 mV, pH 7.4, room temperature; read-out: IC50 (μmol) TASK1 (human)
Method: as §1, §2

T3 sequence (O14649 whole entry): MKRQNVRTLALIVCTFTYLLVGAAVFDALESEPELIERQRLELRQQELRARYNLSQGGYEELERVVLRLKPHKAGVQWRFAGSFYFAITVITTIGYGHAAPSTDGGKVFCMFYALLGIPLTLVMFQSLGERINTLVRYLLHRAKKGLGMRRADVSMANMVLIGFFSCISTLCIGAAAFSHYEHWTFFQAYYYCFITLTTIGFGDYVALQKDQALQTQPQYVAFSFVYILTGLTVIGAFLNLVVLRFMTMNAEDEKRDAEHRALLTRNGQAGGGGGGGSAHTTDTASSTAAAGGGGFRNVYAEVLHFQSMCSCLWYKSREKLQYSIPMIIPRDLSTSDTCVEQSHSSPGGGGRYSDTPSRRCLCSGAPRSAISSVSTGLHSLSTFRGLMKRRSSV
T2 sequence (Q9NPC2 whole entry): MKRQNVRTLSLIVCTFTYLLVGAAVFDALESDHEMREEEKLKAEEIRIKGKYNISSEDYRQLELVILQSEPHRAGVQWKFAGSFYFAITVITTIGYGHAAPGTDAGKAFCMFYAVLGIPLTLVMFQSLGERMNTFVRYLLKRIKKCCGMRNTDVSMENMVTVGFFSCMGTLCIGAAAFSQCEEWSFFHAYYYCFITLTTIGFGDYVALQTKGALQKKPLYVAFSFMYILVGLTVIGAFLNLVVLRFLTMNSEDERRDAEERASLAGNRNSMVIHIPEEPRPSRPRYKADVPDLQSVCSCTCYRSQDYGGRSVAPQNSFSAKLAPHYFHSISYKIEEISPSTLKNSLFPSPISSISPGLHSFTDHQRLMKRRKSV
T1 sequence (O35111 whole entry): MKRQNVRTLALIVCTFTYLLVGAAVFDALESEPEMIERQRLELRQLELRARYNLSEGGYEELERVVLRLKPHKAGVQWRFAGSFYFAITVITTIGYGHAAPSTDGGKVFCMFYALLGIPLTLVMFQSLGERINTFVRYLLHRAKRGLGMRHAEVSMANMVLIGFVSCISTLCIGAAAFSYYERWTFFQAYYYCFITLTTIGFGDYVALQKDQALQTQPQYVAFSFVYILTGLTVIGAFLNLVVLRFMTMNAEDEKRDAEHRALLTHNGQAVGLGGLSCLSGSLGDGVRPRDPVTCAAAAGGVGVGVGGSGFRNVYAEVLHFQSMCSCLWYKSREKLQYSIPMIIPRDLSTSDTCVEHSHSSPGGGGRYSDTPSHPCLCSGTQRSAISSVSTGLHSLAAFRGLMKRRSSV

IC50 [1]: 150 nM
IC50 [2]: 1 µmol/L
melting point: 97 °C
inhibition at 10 µM [7]: 81%
IC50 [8]: 100 nM
Structure (SMILES): CCCCS(=O)(=O)Nc1ccccc1C(=O)N[C@H](CC)c1ccc(OC)nc1 [Example 1 (R-enantiomer), 2-(Butyl-1-sulfonylamino)-N-[1(R)-(6-methoxypyridin-3-yl)propyl]benzamide]
Time from the start of propofol infusion up to the apnea (mean) [3]: 5.63 min
EMG activity of the genioglossus muscle (mean) ([4]; 1 mg/kg intravenously): 4.45 arbitrary units
EMG activity of the genioglossus muscle (mean) ([4]; 3 mg/kg intravenously): 5.59 arbitrary units
EMG activity of the genioglossus muscle (mean) ([4]; 10 mg/kg intravenously): 7.18 arbitrary units
Effect on the electromyographic activity of the genioglossus muscle (in words) ([4]; summary of tables 2 and 4): stimulate
Respiratory minute volume (mean) ([5]; 1 mg/kg intravenously): 246 mL/min
Respiratory minute volume (mean) ([5]; 3 mg/kg intravenously): 317 mL/min
Respiratory minute volume (mean) ([5]; 10 mg/kg intravenously): 375 mL/min
Effect on the respiratory minute volume (in words) ([5]; summary of tables 3 and 5): stimulate
Side-effects [6]: no side-effects were observed
